Drawing on PubChem BioAssay (NCI), this text covers TGI for 10 molecules.

As a reminder, the TGI is the concentration giving total growth inhibition. A higher TGI goes with lower sensitivity of the cells.

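All cell lines were grown in 96-well plates and treated with compound for 48 hours. TGI: concentration producing complete growth inhibition.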

Test in all cases: DTP human tumour cell line panel, 48 h
Experiment [1] concerns RPMI-8226 leukemia.
Experiment [2] has as its system HOP-62 NSCLC.
Experiment [3] has as its system K-562 leukemia.
Experiment [4] deals with MOLT-4 leukemia.
In experiment [5] the test system is CCRF-CEM leukemia.
In experiment [6] the test system is HOP-92 NSCLC.
Experiment [7] has as its system MALME-3M melanoma.
The test system of experiment [8] is ACHN renal.
The test system of experiment [9] is U251 CNS.
The subject of experiment [10] is SF-295 CNS.
Experiment [11] has as its system HL-60(TB) leukemia.
In experiment [12] the test system is RXF 393 renal.
Experiment [13] deals with HT29 colon.
For experiment [14], the system named is TK-10 renal.

Regarding `C/C=C(/C)C(=O)O[C@@H]1CCN2CC[C@H](COC(=O)/C(=C/C)CO)C12` (stereo not given in full), the TGI was more than 87.8 µM in experiment [1]; more than 100 µM in [2]; 18.3 µM in [3]; more than 100 µM in [4]; more than 100 µM in experiment [5]; more than 100 µM in experiment [6]. For the same molecule, the TGI is 84.2 µM in experiment [7]; more than 100 µM in experiment [8]; more than 100 µM in experiment [9]; more than 100 µM in [10]; more than 100 µM in [11]; more than 100 µM in experiment [12]. Also, the figures for the total growth inhibition concentration (TGI) in experiment [13] and in [14] were more than 31.6 µM and more than 100 µM, respectively.

In the case of `Cn1cc(NC(=O)Nc2cc(C(=O)Nc3cc(C(=O)Nc4ccc(S(=O)(=O)O)c5cc(S(=O)(=O)O)ccc45)n(C)c3)n(C)c2)cc1C(=O)Nc1cc(C(=O)Nc2ccc(S(=O)(=O)O)c3cc(S(=O)(=O)O)ccc23)n(C)c1`, the total growth inhibition concentration (TGI) in experiment [1], in [2], in [3], in [4], in [5] and in experiment [6] was more than 100 µM each time. For the same molecule, the TGI in experiment [7], in experiment [8], in experiment [9], in experiment [10], in experiment [11] and in experiment [12] was more than 100 µM in each case. Moreover, the TGI in [13] and in experiment [14] was more than 100 µM each time.

As to `COC(=O)c1ccccc1/C=C1\Cc2ccc(C)c(C)c2C1=O`, the concentration for total growth inhibition (TGI) was more than 100 µM in experiment [1]; more than 100 µM in experiment [2]; more than 100 µM in experiment [3]; more than 100 µM in experiment [4]; more than 100 µM in experiment [5]; 92.5 µM in experiment [6]. The TGI in experiment [7], in experiment [8], in experiment [9], in [10], in experiment [11] and in [12] was more than 100 µM in each case. For the same molecule, the TGI in [13] and in experiment [14] was more than 100 µM in each case.

As for `CN(C)CCCN1CCC2(CCC(C(C)(C)C)CC2)CC1`, the TGI in experiment [1] amounted to 10.5 µM; in experiment [2] it was 4.91 µM; in experiment [3], 0.962 µM; in experiment [4], 5.74 µM; in [5], 4.82 µM; in [6] it was 10.1 µM. The TGI in experiment [7] was 3.4 µM; in [8], 18.8 µM; in experiment [9], 3.64 µM; in experiment [10] it was 3.96 µM; in experiment [11] it was 2.23 µM; in experiment [12] it was 4.13 µM. The TGI came out at 1.7 µM in experiment [13] and 3.34 µM in experiment [14].

In the case of `Fc1cc(-c2cc(-c3ccccc3)no2)c(Cl)cc1Cl`, the TGI in experiment [1] is 34 µM; in experiment [2] it was more than 54.8 µM; in [3], more than 56.4 µM; in experiment [4] it was more than 47.8 µM; in [5], more than 49.6 µM; in [6], 35.7 µM. Moreover, the TGI in experiment [7] is more than 35.2 µM; in experiment [8], more than 59.6 µM; in [9], more than 21.7 µM; in [10], more than 49.4 µM; in experiment [11], more than 37.7 µM; in [12], 16.6 µM. Further, the total growth inhibition concentration (TGI) in experiment [13] is more than 46.7 µM; in [14] it was more than 51.7 µM.

Take `Cc1c(N=Nc2ccc(Cl)cc2)c(-c2ccccc2)n(C2OC(CO)C(O)C(O)C2O)c(=S)c1C#N` (stereo not given): the TGI was more than 100 µM in experiment [1]; 34.4 µM in experiment [2]; 41.3 µM in [3]; 33.2 µM in experiment [4]; 87.5 µM in experiment [5]; 28.8 µM in experiment [6]. Further, the TGI in experiment [7] was 46.4 µM; in experiment [8], 31.1 µM; in [9] it was 25.3 µM; in experiment [10] it was 73.9 µM; in experiment [11], more than 100 µM; in experiment [12] it was 28.7 µM. Further, the TGI in experiment [13] came out at 33.7 µM; in experiment [14], 44.4 µM.

On to `S=c1sc2c(Cl)nc(Cl)nc2n1-c1ccccc1`, for which the TGI is more than 100 µM in experiment [1]; more than 100 µM in experiment [2]; more than 100 µM in [3]; more than 100 µM in experiment [4]; 75.8 µM in experiment [5]; more than 100 µM in experiment [6]. For the same molecule, the TGI in experiment [7] was more than 100 µM; in [8] it was more than 100 µM; in [9] it was 98 µM; in experiment [10] it was more than 100 µM; in experiment [11], 82.6 µM; in [12], 50.6 µM. Further, the total growth inhibition concentration (TGI) in experiment [13] and in experiment [14] was more than 100 µM in each case.

As for `CN=C(N=Nc1c(O)[nH]c2ccccc12)SCC(=O)c1ccc(Br)cc1`, the TGI in [1] was more than 100 µM; in experiment [2], 20.7 µM; in experiment [3] it was more than 100 µM; in experiment [4], more than 100 µM; in [5], 30.8 µM; in [6], more than 52.4 µM. Besides, the concentration for total growth inhibition (TGI) is more than 47.1 µM in [7]; 52.2 µM in [8]; 16.6 µM in [9]; 49.6 µM in [10]; more than 100 µM in experiment [11]; 19.2 µM in experiment [12]. Further, the TGI in [13] is more than 43.5 µM; in experiment [14] it was 37.7 µM.

`COc1cc(C2c3cc4c(cc3OC3(OC)COC(=O)C23)OCO4)cc(OC)c1OC(C)=O` (stereo not given): the TGI in experiment [1] is more than 100 µM; in [2], 31.7 µM; in experiment [3], more than 100 µM; in experiment [4] it was more than 100 µM; in experiment [5], more than 100 µM; in experiment [6] it was more than 100 µM. Further, the TGI is more than 100 µM in experiment [7]; more than 100 µM in experiment [8]; more than 100 µM in experiment [9]; 5.38 µM in experiment [10]; 12.8 µM in experiment [11]; 7.49 µM in [12]. Besides, the figures for the TGI in experiment [13] and in experiment [14] were more than 37.5 µM and more than 100 µM, respectively.

Turning to `CC1CCC(=O)C(C(=O)CC2CC(=O)N(C)C(=O)C2)C1` (stereo not given), the TGI in [1], in experiment [2], in [3], in experiment [4], in experiment [5] and in experiment [6] was more than 100 µM throughout. Besides, the TGI in [7], in experiment [8], in experiment [9], in experiment [10], in experiment [11] and in [12] was more than 100 µM each time. The TGI in experiment [13] and in experiment [14] was more than 100 µM throughout.
